From ChEMBL document CHEMBL3784961, “Kinetics and metabolism of paracetamol and phenacetin” (Br J Clin Pharmacol, 1980)
Each block holds one compound with its values, some of them ahead of it.

Legend:
Homo sapiens [1] = experiment: Renal clearance in healthy human assessed as paracetamol glucuronide level at 20 mg/kg; type: ADME, organism-based, Kidney; settings: in vivo
[2] = Systemic availability in human; type: ADME, organism-based; settings: in vivo
[3] = Apparent volume of distribution in human; settings: in vivo
[4] = Drug excretion in human urine assessed as unchanged parent compound level; type: ADME; settings: read-out: Drug excretion
[5] = Half life in healthy young adult human; type: ADME, organism-based; settings: in vivo
[6] = Drug excretion in urine of healthy young adult human assessed as unchanged parent drug level after 24 hrs; type: ADME; settings: read-out: Drug excretion
[7] = Drug excretion in urine of healthy young adult human assessed as sulphate conjugate level after 24 hrs; type: ADME; settings: in vivo
[8] = Drug excretion in urine of healthy young adult human assessed as glucuronide conjugate level after 24 hrs; type: ADME; settings: in vivo
[9] = Half life in elderly human; type: ADME, organism-based; settings: in vivo
[10] = Drug excretion in urine of human at 20 mg/kg assessed as mercapturic conjugate level after 24 hrs; type: ADME, organism-based; settings: in vivo
[11] = Volume of distribution in 70 kg adult human at 12 mg/kg, iv infused over 2 mins; settings: in vivo
[12] = Systemic availability in healthy adult male human subject at 12 mg/kg, po; type: ADME, organism-based; settings: in vivo
Homo sapiens [13] = experiment: Drug recovery in healthy human subjects (8 subjects) assessed as sulphate conjugate level at 20 mg/kg, po; type: ADME, organism-based; settings: in vivo
Homo sapiens [14] = experiment: Drug recovery in poisoned human patient (9 patients) without liver damage receiving supportive treatment assessed as sulphate conjugate level at 20 mg/kg, po; type: ADME, organism-based; settings: in vivo
Homo sapiens [15] = experiment: Drug recovery in poisoned human patient (15 patients) without liver damage receiving cysteamine treatment assessed as sulphate conjugate level at 20 mg/kg, po; type: ADME, organism-based; settings: in vivo
Homo sapiens [16] = experiment: Drug recovery in poisoned human patient (8 patients) without liver damage receiving methionine treatment assessed as sulphate conjugate level at 20 mg/kg, po; type: ADME, organism-based; settings: in vivo
Homo sapiens [17] = experiment: Drug recovery in poisoned human patient (23 patients) without liver damage receiving NAC treatment assessed as sulphate conjugate level at 20 mg/kg, po; type: ADME, organism-based; settings: in vivo
Homo sapiens [18] = experiment: Drug recovery in poisoned human patient (8 patients) with severe liver damage receiving supportive treatment assessed as sulphate conjugate level at 20 mg/kg, po; type: ADME, organism-based; settings: in vivo
Homo sapiens [19] = experiment: Drug recovery in poisoned human patient (3 patients) with severe liver damage receiving methionine treatment assessed as sulphate conjugate level at 20 mg/kg, po; type: ADME, organism-based; settings: in vivo
Homo sapiens [20] = experiment: Drug recovery in poisoned human patient (8 patients) with severe liver damage receiving NAC treatment assessed as sulphate conjugate level at 20 mg/kg, po; type: ADME, organism-based; settings: in vivo
Homo sapiens [21] = experiment: Drug recovery in healthy human subjects (8 subjects) assessed as glucuronide conjugate level at 20 mg/kg, po; type: ADME, organism-based; settings: in vivo
Homo sapiens [22] = experiment: Drug recovery in poisoned human patient (9 patients) without liver damage receiving supportive treatment assessed as glucuronide conjugate level at 20 mg/kg, po; type: ADME, organism-based; settings: in vivo
Homo sapiens [23] = experiment: Drug recovery in poisoned human patient (15 patients) without liver damage receiving cysteamine treatment assessed as glucuronide conjugate level at 20 mg/kg, po; type: ADME, organism-based; settings: in vivo
Homo sapiens [24] = experiment: Drug recovery in poisoned human patient (8 patients) without liver damage receiving methionine treatment assessed as glucuronide conjugate level at 20 mg/kg, po; type: ADME, organism-based; settings: in vivo
Homo sapiens [25] = experiment: Drug recovery in poisoned human patient (23 patients) without liver damage receiving NAC treatment assessed as glucuronide conjugate level at 20 mg/kg, po; type: ADME, organism-based; settings: in vivo
Homo sapiens [26] = experiment: Drug recovery in poisoned human patient (8 patients) with severe liver damage receiving supportive treatment assessed as glucuronide conjugate level at 20 mg/kg, po; type: ADME, organism-based; settings: in vivo
Homo sapiens [27] = experiment: Drug recovery in poisoned human patient (3 patients) with severe liver damage receiving methionine treatment assessed as glucuronide conjugate level at 20 mg/kg, po; type: ADME, organism-based; settings: in vivo
Homo sapiens [28] = experiment: Drug recovery in poisoned human patient (8 patients) with severe liver damage receiving NAC treatment assessed as glucuronide conjugate level at 20 mg/kg, po; type: ADME, organism-based; settings: in vivo
Homo sapiens [29] = experiment: Drug recovery in healthy human subjects (8 subjects) assessed as mercapturate plus cysteine conjugate level at 20 mg/kg, po; type: ADME, organism-based; settings: in vivo
Homo sapiens [30] = experiment: Drug recovery in poisoned human patient (9 patients) without liver damage receiving supportive treatment assessed as mercapturate plus cysteine conjugate level at 20 mg/kg, po; type: ADME, organism-based; settings: in vivo
Homo sapiens [31] = experiment: Drug recovery in poisoned human patient (15 patients) without liver damage receiving cysteamine treatment assessed as mercapturate plus cysteine conjugate level at 20 mg/kg, po; type: ADME, organism-based; settings: in vivo
Homo sapiens [32] = experiment: Drug recovery in poisoned human patient (8 patients) without liver damage receiving methionine treatment assessed as mercapturate plus cysteine conjugate level at 20 mg/kg, po; type: ADME, organism-based; settings: in vivo
Homo sapiens [33] = experiment: Drug recovery in poisoned human patient (23 patients) without liver damage receiving NAC treatment assessed as mercapturate plus cysteine conjugate level at 20 mg/kg, po; type: ADME, organism-based; settings: in vivo
Homo sapiens [34] = experiment: Drug recovery in poisoned human patient (8 patients) with severe liver damage receiving supportive treatment assessed as mercapturate plus cysteine conjugate level at 20 mg/kg, po; type: ADME, organism-based; settings: in vivo
Homo sapiens [35] = experiment: Drug recovery in poisoned human patient (3 patients) with severe liver damage receiving methionine treatment assessed as mercapturate plus cysteine conjugate level at 20 mg/kg, po; type: ADME, organism-based; settings: in vivo
Homo sapiens [36] = experiment: Drug recovery in poisoned human patient (8 patients) with severe liver damage receiving NAC treatment assessed as mercapturate plus cysteine conjugate level at 20 mg/kg, po; type: ADME, organism-based; settings: in vivo
Homo sapiens [37] = experiment: Mean drug recovery in poisoned human patient (9 patients) without liver damage receiving supportive treatment at 20 mg/kg, po; type: ADME, organism-based; settings: in vivo
Homo sapiens [38] = experiment: Mean drug recovery in poisoned human patient (15 patients) without liver damage receiving cysteamine treatment at 20 mg/kg, po; type: ADME, organism-based; settings: in vivo
Homo sapiens [39] = experiment: Mean drug recovery in poisoned human patient (8 patients) without liver damage receiving methionine treatment at 20 mg/kg, po; type: ADME, organism-based; settings: in vivo
Homo sapiens [40] = experiment: Mean drug recovery in poisoned human patient (23 patients) without liver damage receiving NAC treatment at 20 mg/kg, po; type: ADME, organism-based; settings: in vivo
Homo sapiens [41] = experiment: Mean drug recovery in poisoned human patient (8 patients) with severe liver damage receiving supportive treatment at 20 mg/kg, po; type: ADME, organism-based; settings: in vivo
Homo sapiens [42] = experiment: Mean drug recovery in poisoned human patient (3 patients) with severe liver damage receiving methionine treatment at 20 mg/kg, po; type: ADME, organism-based; settings: in vivo
Homo sapiens [43] = experiment: Mean drug recovery in poisoned human patient (8 patients) with severe liver damage receiving NAC treatment at 20 mg/kg, po; type: ADME, organism-based; settings: in vivo
[44] = Elimination half life in healthy adult male human subject at 12 mg/kg, po; type: ADME, organism-based; settings: in vivo, read-out: beta t1/2 (converted)
[45] = Elimination half life in healthy adult male human subject at 12 mg/kg, iv; type: ADME, organism-based; settings: in vivo, read-out: beta t1/2 (converted)
Homo sapiens [46] = experiment: Distribution half life in healthy adult male human subject at 12 mg/kg, iv; type: ADME, organism-based; settings: in vivo
[47] = Volume of distribution at central compartment in healthy adult male human subject at 12 mg/kg, iv; settings: in vivo
[48] = Volume of distribution at central and peripheral compartment in healthy adult male human subject at 12 mg/kg, iv; settings: in vivo
Homo sapiens [49] = experiment: Renal clearance in healthy human assessed as paracetamol sulfate level at 20 mg/kg; type: ADME, organism-based, Kidney; settings: in vivo
[50] = Half life in human; type: ADME, organism-based; settings: in vivo

CL (Homo sapiens [1]): 130 mL/min
SMILES: CC(=O)Nc1ccc(O[C@@H]2O[C@H](C(=O)O)[C@@H](O)[C@H](O)[C@H]2O)cc1 [ACETAMINOPHEN GLUCURONIDE]

SMILES: CC(=O)Nc1ccc(O)cc1 [ACETAMINOPHEN]
bioavailability [2]: 75%
Vd [3]: 0.9 L/kg
dose excreted [4]: 2%
half-life [5]: 2 h
dose excreted at 24 h [6]: 4%
Drug excretion [7]: 30%
Drug excretion [8]: 55%
half-life [9]: 2.17 h
Drug excretion [10]: 4%
Vd at 2 min [11]: 65 L
bioavailability [12]: 76%
Drug recovery (Homo sapiens [13]): 32.3%
Drug recovery (Homo sapiens [14]): 9.3%
Drug recovery (Homo sapiens [15]): 11.9%
Drug recovery (Homo sapiens [16]): 10.1%
Drug recovery (Homo sapiens [17]): 14.5%
Drug recovery (Homo sapiens [18]): 9.7%
Drug recovery (Homo sapiens [19]): 9.1%
Drug recovery (Homo sapiens [20]): 13.3%
Drug recovery (Homo sapiens [21]): 54.7%
Drug recovery (Homo sapiens [22]): 75.3%
Drug recovery (Homo sapiens [23]): 72.4%
Drug recovery (Homo sapiens [24]): 73.9%
Drug recovery (Homo sapiens [25]): 63.6%
Drug recovery (Homo sapiens [26]): 66.5%
Drug recovery (Homo sapiens [27]): 68.9%
Drug recovery (Homo sapiens [28]): 60.9%
Drug recovery (Homo sapiens [29]): 8%
Drug recovery (Homo sapiens [30]): 6.9%
Drug recovery (Homo sapiens [31]): 6.4%
Drug recovery (Homo sapiens [32]): 8.1%
Drug recovery (Homo sapiens [33]): 10.6%
Drug recovery (Homo sapiens [34]): 15.2%
Drug recovery (Homo sapiens [35]): 13.8%
Drug recovery (Homo sapiens [36]): 16.5%
Drug recovery (Homo sapiens [37]): 10.3 g
Drug recovery (Homo sapiens [38]): 14.5 g
Drug recovery (Homo sapiens [39]): 14.5 g
Drug recovery (Homo sapiens [40]): 13.4 g
Drug recovery (Homo sapiens [41]): 11.8 g
Drug recovery (Homo sapiens [42]): 13.7 g
Drug recovery (Homo sapiens [43]): 13 g
half-life [44]: 1.97 h
half-life [45]: 1.98 h
alphat1/2 (Homo sapiens [46]): 0.13 h
Vd [47]: 0.509 L/kg
Vd [48]: 0.897 L/kg

CL (Homo sapiens [49]): 166 mL/min
SMILES: CC(=O)Nc1ccc(OS(=O)(=O)O)cc1

dose excreted [4]: < 0.5%
half-life [50]: 1 h
SMILES: CCOc1ccc(NC(C)=O)cc1 [PHENACETIN]
